Some test systems named below: SW-620; HL-60; M14; SF-268; 786-0; SK-OV-3; SF-295; CAKI-1; UACC-62; SK-MEL-28; MOLT-4; SNB-19; UO-31; SN12C; IGROV-1; CCRF-CEM; HCT-15; TK-10; U-251; OVCAR-4.
Holding throughout (assay): NCI tumour cell line growth inhibition, 48 h

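Results reflect a 48-hour exposure of cells in 96-well plates to compound at five concentrations. The concentration for 50% growth inhibition is given as GI50.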 Active and inactive are the calls of the source. No stated cut-off is given here; in the data, active = GI50 up to about 1.1 µM and inactive = higher.

On to `O=P1(c2ccccc2)c2ccccc2CCc2ccccc21`, for which the GI50 was > 100 µM (inactive) in the experiment on SW-620; 16.6 µM (inactive) in the experiment with HL-60; 70 µM (inactive) in the experiment on M14; 95.9 µM (inactive) in the experiment with SF-268; > 100 µM (inactive) in the experiment on 786-0; 58.2 µM (inactive) with SK-OV-3. The GI50 was 45.5 µM (inactive) in the experiment on SF-295; 34.2 µM (inactive) in the experiment on CAKI-1; 78.7 µM (inactive) in the experiment on UACC-62; > 100 µM (inactive) with SK-MEL-28; 33.6 µM (inactive) in the experiment on MOLT-4; > 100 µM (inactive) in the experiment on SNB-19. Further, the GI50 in the experiment on UO-31 is 53.3 µM (inactive); with SN12C it was 81.1 µM (inactive); with IGROV-1, > 100 µM (inactive); in the experiment on CCRF-CEM it was 47.9 µM (inactive); in the experiment on HCT-15 it was 68.9 µM; in the experiment with TK-10, > 100 µM (inactive).

Consider `CC(C)(C)C1=C(Br)C(F)(C(C)(C)C)OP1(=O)c1ccccc1` (stereo unspecified), for which the GI50 with SW-620 was 17.5 µM (inactive); with HL-60 it was 2.79 µM (inactive); in the experiment on M14 it was 14.8 µM (inactive); in the experiment with SF-268, 19.6 µM (inactive); in the experiment with U-251 it was 17.5 µM (inactive); in the experiment with 786-0, 16.1 µM (inactive). Also, the GI50 in the experiment on SK-OV-3 is 18 µM (inactive); in the experiment with SF-295, 21.6 µM (inactive); with CAKI-1, 13 µM (inactive); in the experiment on UACC-62, 15.3 µM (inactive); in the experiment on SK-MEL-28 it was 19.2 µM (inactive); in the experiment with SNB-19, 16.4 µM (inactive). Besides, the GI50 is 45.7 µM (inactive) in the experiment on UO-31; 16 µM (inactive) with SN12C; 16 µM (inactive) in the experiment on IGROV-1; 19.5 µM in the experiment on HCT-15; 18.8 µM (inactive) in the experiment on TK-10; 10.1 µM (inactive) with OVCAR-4.

Regarding `COC(=O)[C@H](Cc1c[nH]c2ccccc12)NP(=O)(O)OC[C@H]1O[C@@H](n2cc(C)c(=O)[nH]c2=O)C[C@@H]1N=[N+]=[N-]`, the GI50 in the experiment on SW-620, in the experiment on HL-60, in the experiment on M14, with SF-268, in the experiment on U-251 and in the experiment on 786-0 was > 100 µM (inactive) in each case. In addition, the GI50 in the experiment with SK-OV-3, in the experiment with SF-295, in the experiment with CAKI-1, in the experiment on UACC-62, with MOLT-4 and in the experiment with SNB-19 was > 100 µM (inactive) throughout. Also, the GI50 in the experiment on UO-31 is > 100 µM (inactive); in the experiment on SN12C, > 100 µM (inactive); in the experiment with IGROV-1, > 100 µM (inactive); in the experiment on CCRF-CEM, > 100 µM (inactive); with HCT-15, over 100 µM; in the experiment on TK-10 it was > 100 µM (inactive). The GI50 in the experiment on OVCAR-4 is > 100 µM (inactive).

Regarding `CS(=O)(=O)O[C@H]1[C@H](O)c2ccccc2[C@@H]1N=[N+]=[N-]`, the GI50 in the experiment with SW-620, in the experiment on HL-60, in the experiment with M14, with U-251, in the experiment on 786-0 and in the experiment on SK-OV-3 was > 100 µM (inactive) each time. Moreover, the GI50 in the experiment with SF-295, in the experiment with CAKI-1, with UACC-62, with SK-MEL-28, in the experiment with MOLT-4 and with SNB-19 was > 100 µM (inactive) throughout. Also, the GI50 in the experiment on UO-31 was > 100 µM (inactive); in the experiment on SN12C, > 100 µM (inactive); in the experiment on IGROV-1 it was > 100 µM (inactive); in the experiment on CCRF-CEM it was > 100 µM (inactive); with HCT-15, over 100 µM; in the experiment on OVCAR-4, > 100 µM (inactive).

Consider `CC1(C)Cc2cc(C(=O)O)c3c(c2C1=O)COCC3`, for which the GI50 in the experiment on SW-620, in the experiment on HL-60, in the experiment with M14, in the experiment with SF-268, in the experiment on U-251 and with 786-0 was > 100 µM (inactive) each time. For the same compound, the GI50 in the experiment with SK-OV-3, in the experiment with SF-295, with CAKI-1, in the experiment on UACC-62, in the experiment with MOLT-4 and in the experiment on SNB-19 was > 100 µM (inactive) throughout. Further, the GI50 with UO-31 is > 100 µM (inactive); with SN12C it was > 100 µM (inactive); with IGROV-1, > 100 µM (inactive); with CCRF-CEM, > 100 µM (inactive); in the experiment on HCT-15 it was over 100 µM; in the experiment with TK-10 it was > 10 µM (inactive). Further, the GI50 with OVCAR-4 is > 100 µM (inactive).

Consider `COc1cc(OC)c2c(=O)cc(-c3ccc(OC)c(OC)c3OC)oc2c1`, for which the GI50 in the experiment on SW-620 is > 100 µM (inactive); in the experiment on HL-60, > 100 µM (inactive); in the experiment on M14, > 100 µM (inactive); with SF-268 it was 48.2 µM (inactive); with 786-0, 38.5 µM (inactive); in the experiment with SK-OV-3, > 100 µM (inactive). In addition, the GI50 in the experiment with SF-295 was 52.2 µM (inactive); in the experiment with CAKI-1, > 100 µM (inactive); with UACC-62 it was > 100 µM (inactive); in the experiment with SK-MEL-28, > 100 µM (inactive); with SNB-19, > 100 µM (inactive); in the experiment with SN12C it was > 100 µM (inactive). Also, the GI50 with IGROV-1 is > 100 µM (inactive); with CCRF-CEM it was > 10 µM (inactive); with HCT-15, over 100 µM; in the experiment on TK-10, > 100 µM (inactive); with OVCAR-4, 54.3 µM (inactive).

With `CC(=O)C1C(=O)C(C(C)=O)C2C3C=CC(C3)C12` (stereo unspecified), the GI50 with SW-620, with HL-60, in the experiment with SF-268, in the experiment on U-251, in the experiment on 786-0 and with SK-OV-3 was > 100 µM (inactive) in each case. Also, the GI50 with SF-295, in the experiment on CAKI-1, in the experiment with UACC-62, in the experiment on SK-MEL-28, in the experiment on MOLT-4 and with SNB-19 was > 100 µM (inactive) in each case. Moreover, the GI50 in the experiment on UO-31 was > 100 µM (inactive); with SN12C, > 100 µM (inactive); in the experiment on IGROV-1, > 100 µM (inactive); with CCRF-CEM, > 100 µM (inactive); with HCT-15, over 100 µM; in the experiment with TK-10, > 100 µM (inactive). Further, the GI50 with OVCAR-4 is > 100 µM (inactive).

On to `Cc1ccccc1-n1c(=O)nc2n(-c3ccc(C(C)(C)C)cc3)c3ccccc3cc-2c1=O`, for which the GI50 with SW-620 was 15.9 µM (inactive); with HL-60, 20.3 µM (inactive); with M14, 17.7 µM (inactive); with SF-268 it was 27.5 µM (inactive); with U-251, 15 µM (inactive); in the experiment on 786-0 it was 24.4 µM (inactive). The GI50 with SF-295 was 20.4 µM (inactive); with CAKI-1 it was 23.9 µM (inactive); in the experiment on UACC-62, 19.2 µM (inactive); with SK-MEL-28, 15.3 µM (inactive); in the experiment on MOLT-4, 23.8 µM (inactive); in the experiment on SNB-19 it was 21.5 µM (inactive). Also, the GI50 in the experiment on UO-31 was 26.4 µM (inactive); with SN12C, 17.7 µM (inactive); in the experiment with IGROV-1, 24.3 µM (inactive); with CCRF-CEM, 19.8 µM (inactive); with HCT-15 it was 16.6 µM; in the experiment with TK-10 it was 37.7 µM (inactive). In addition, the GI50 in the experiment with OVCAR-4 was 26.5 µM (inactive).

As to `CC(=O)Oc1c(C)c2c(O)c3c1C1=C(OCOC1=C(C)C3=O)/C(C)=C/C(C)(O)C(O)C(C)C(O)C1C(=O)OC(C(C)C1O)C(C)(O)/C=C\C=C(C)C(=O)N2` (stereo unspecified), the GI50 in the experiment on SW-620 was 63 µM (inactive); with HL-60, 3.25 µM (inactive); in the experiment on M14, 34.4 µM (inactive); in the experiment with SF-268, 31.8 µM (inactive); in the experiment on U-251, 39.7 µM (inactive); in the experiment with 786-0 it was 53.7 µM (inactive). The GI50 is 35.5 µM (inactive) with SK-OV-3; 38.3 µM (inactive) in the experiment on SF-295; 17.1 µM (inactive) with CAKI-1; 30.8 µM (inactive) in the experiment on UACC-62; 81.5 µM (inactive) in the experiment with SK-MEL-28; 36.1 µM (inactive) in the experiment with MOLT-4. For the same compound, the GI50 in the experiment on SNB-19 is 66.8 µM (inactive); in the experiment with UO-31, 11.1 µM (inactive); with SN12C it was 35 µM (inactive); with IGROV-1 it was 5.66 µM (inactive); in the experiment with CCRF-CEM, 21.5 µM (inactive); in the experiment on HCT-15, 48.9 µM.

As for `CC(=O)O[C@H]1C(=O)[C@@]2(C)C(C(OC(=O)c3ccccc3)[C@]3(O)CC(OC(=O)C(O)C(NC(=O)c4cccc(Cl)c4)c4ccccc4)C(C)=C1C3(C)C)[C@]1(OC(C)=O)CO[C@@H]1C[C@@H]2O` (stereo partly specified), the GI50 was 0.838 µM (active) with SW-620; 0.148 µM (active) in the experiment with HL-60; 0.851 µM (active) with M14; 0.268 µM (active) in the experiment on SF-268; 1.25 µM (inactive) with U-251; 0.728 µM (active) in the experiment on 786-0. Also, the GI50 was 3.67 µM (inactive) in the experiment with SK-OV-3; 1.15 µM (inactive) in the experiment on SF-295; 6.64 µM (inactive) with CAKI-1; 1.01 µM (active) in the experiment on MOLT-4; 2.79 µM (inactive) in the experiment on SNB-19; 0.628 µM (active) in the experiment on SN12C. The GI50 in the experiment with IGROV-1 is 0.624 µM (active); with CCRF-CEM it was 0.262 µM (active); in the experiment with HCT-15, 2.62 µM; in the experiment with TK-10 it was 2.51 µM (inactive); in the experiment with OVCAR-4, 3.96 µM (inactive).

On to `ClCCN1CCO/C1=N/c1ccc2c(c1)CCCC2`, for which the GI50 in the experiment on SW-620 was 22.3 µM (inactive); in the experiment on HL-60 it was 4.25 µM (inactive); with M14, 13.3 µM (inactive); in the experiment on SF-268, 14.7 µM (inactive); in the experiment on U-251, 4.65 µM (inactive); in the experiment with 786-0 it was 16.2 µM (inactive). Besides, the GI50 with SK-OV-3 is 20.7 µM (inactive); with SF-295 it was 12.1 µM (inactive); with CAKI-1, 16 µM (inactive); with UACC-62 it was 11.3 µM (inactive); in the experiment with SK-MEL-28 it was 14.1 µM (inactive); with MOLT-4, 12.2 µM (inactive). Further, the GI50 in the experiment on SNB-19 is 5.53 µM (inactive); in the experiment with UO-31, 14 µM (inactive); in the experiment on SN12C it was 12.6 µM (inactive); with IGROV-1, 7.48 µM (inactive); in the experiment on CCRF-CEM, 11.3 µM (inactive); with HCT-15 it was 20 µM. Besides, the GI50 in the experiment with OVCAR-4 is 6.1 µM (inactive).

The values are drawn from ChEMBL document CHEMBL1201862, “PubChem BioAssay data set” (2004).
